Data: PMC9090415, “Discovery of small molecule inhibitors of Plasmodium falciparum apicoplast DNA polymerase” (Journal of Enzyme Inhibition and Medicinal Chemistry, 2022)

Target: P. falciparum apicoplast DNA polymerase (Pf-apPOL) (Plasmodium falciparum, UniProt Q8ILY1)
Assay: Fluorescence-based high-throughput DNA polymerase assay (molecular beacon), primary screen and dose-response;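 for % inhibition ApPOL 90': test concentration in µM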;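 for % inhibition Apol 40': compound concentration given in µM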;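 for % inhibition apPOL 180': test concentration in µM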
Assay type: biochemical
Conditions: for DNA Pol: 90 min, 10 µM
Procedure, shortened: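 Single-point screening used 10 µM compound with 20 nM polymerase, 20 nM hairpin substrate and 6 µM dNTPs for 90 min at 25 °C. Confirmatory titrations (2.5–80 µM) followed fluorescence at three times, and IC50 was derived from a fit including a cooperativity term n.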

Chain of P. falciparum apicoplast DNA polymerase (Pf-apPOL) (Q8ILY1 entry or part of it): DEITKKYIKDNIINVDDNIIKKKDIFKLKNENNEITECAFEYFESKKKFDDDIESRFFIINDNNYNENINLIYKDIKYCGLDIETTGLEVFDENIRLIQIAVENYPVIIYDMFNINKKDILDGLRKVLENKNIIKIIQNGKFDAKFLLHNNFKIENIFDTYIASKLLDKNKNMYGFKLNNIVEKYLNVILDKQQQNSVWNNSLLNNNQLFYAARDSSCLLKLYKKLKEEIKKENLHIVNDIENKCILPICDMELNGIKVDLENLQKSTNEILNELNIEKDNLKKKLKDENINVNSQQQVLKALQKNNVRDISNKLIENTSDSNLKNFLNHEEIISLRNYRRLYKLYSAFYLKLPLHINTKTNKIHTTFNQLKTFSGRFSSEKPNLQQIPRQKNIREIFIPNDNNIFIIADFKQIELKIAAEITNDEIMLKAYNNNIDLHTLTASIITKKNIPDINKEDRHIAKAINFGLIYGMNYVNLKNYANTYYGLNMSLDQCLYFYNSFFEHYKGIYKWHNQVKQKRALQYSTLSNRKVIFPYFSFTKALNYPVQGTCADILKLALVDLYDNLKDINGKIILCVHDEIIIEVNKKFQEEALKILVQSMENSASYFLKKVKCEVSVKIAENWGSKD

**Q.** What does the source list for `Cc1ccc2c(C(=O)NCCc3cccnc3)cc(NC(=O)C(C)C)cc2n1` [KU0206096]?
**A.** DNA Pol ("DNA Pol" of the 186 hits list (screen value)): 22; % inhibition Apo pol 10' (DRC-1, concentration 2.5): 2.289%; % inhibition Apo pol 10' (DRC-1, concentration 5): 10.1779%; % inhibition Apo pol 10' (DRC-1, concentration 10): 28.6368%; % inhibition Apo pol 10' (DRC-1, concentration 20): 37.57%; % inhibition Apo pol 10' (DRC-1, concentration 40): 75.2311%; % inhibition Apo pol 10' (DRC-1, concentration 80): 89.4827%; % inhibition Apol 90' (DRC-1, concentration 2.5): -0.2653%; % inhibition Apol 90' (DRC-1, concentration 5): 3.264%; % inhibition Apol 90' (DRC-1, concentration 10): 15.2748%; % inhibition Apol 90' (DRC-1, concentration 20): 20.9182%; % inhibition Apol 90' (DRC-1, concentration 40): 58.3993%; % inhibition Apol 90' (DRC-1, concentration 80): 83.2702%; % inhibition apPOL 180' (DRC-1, concentration 2.5): -4.525%; % inhibition apPOL 180' (DRC-1, concentration 5): -3.235%; % inhibition apPOL 180' (DRC-1, concentration 10): 5.405%; % inhibition apPOL 180' (DRC-1, concentration 20): 7.166%; % inhibition apPOL 180' (DRC-1, concentration 40): 41.4073%; % inhibition apPOL 180' (DRC-1, concentration 80): 75.1879%; % inhibition Apo pol 5' (DRC-2, concentration 2.5): -0.312%; % inhibition Apo pol 5' (DRC-2, concentration 5): 5.56%; % inhibition Apo pol 5' (DRC-2, concentration 10): 24%; % inhibition Apo pol 5' (DRC-2, concentration 20): 40%; % inhibition Apo pol 5' (DRC-2, concentration 40): 49%; % inhibition Apo pol 5' (DRC-2, concentration 80): 49%; % inhibition Apol 40' (DRC-2, concentration 2.5): 1.82%; % inhibition Apol 40' (DRC-2, concentration 5): 5.58%; % inhibition Apol 40' (DRC-2, concentration 10): 24%; % inhibition Apol 40' (DRC-2, concentration 20): 42%; % inhibition Apol 40' (DRC-2, concentration 40): 62%; % inhibition Apol 40' (DRC-2, concentration 80): 70%; % inhibition ApPOL 90' (DRC-2, concentration 2.5): 1.09%; % inhibition ApPOL 90' (DRC-2, concentration 5): 5.45%; % inhibition ApPOL 90' (DRC-2, concentration 10): 21%; % inhibition ApPOL 90' (DRC-2, concentration 20): 39%; % inhibition ApPOL 90' (DRC-2, concentration 40): 63%; % inhibition ApPOL 90' (DRC-2, concentration 80): 75%; % inhibition apPOL 180' (DRC-2, concentration 2.5): -1.29%; % inhibition apPOL 180' (DRC-2, concentration 5): 2.66%; % inhibition apPOL 180' (DRC-2, concentration 10): 13%; % inhibition apPOL 180' (DRC-2, concentration 20): 28%; % inhibition apPOL 180' (DRC-2, concentration 40): 57%; % inhibition apPOL 180' (DRC-2, concentration 80): 78%; DNA Pol (primary screen value, DNA Pol): 22

**Q.** With `Cl.NC(CO)C(=O)NNCc1ccc(O)c(O)c1O` (stereo not shown) [KU0260493] as the molecule, how does the “DNA Pol” value ('DNA Pol' of the 186 hits list (primary screen value)) read?
**A.** Its value is 84.

**Q.** What about the “DNA Pol” value (DNA Pol (primary screen value)) of the same molecule?
**A.** The value was 84.

**Q.** And the “% inhibition Apo pol 10'” value (DRC-1, concentration 2.5)?
**A.** The value was 2.4672%.

**Q.** What about the “% inhibition Apo pol 10'” value (DRC-1, concentration 5) of the same molecule?
**A.** The value was 2.015%.

**Q.** What about the “% inhibition Apo pol 10'” value (DRC-1, concentration 10) of the same molecule?
**A.** The value was 15.4444%.

**Q.** What about the “% inhibition Apo pol 10'” value (DRC-1, concentration 20) of the same molecule?
**A.** Its value is 26.1922%.

**Q.** What about the “% inhibition Apo pol 10'” value (DRC-1, concentration 40) of the same molecule?
**A.** The value was 36.4325%.

**Q.** What about the “% inhibition Apo pol 10'” value (DRC-1, concentration 80) of the same molecule?
**A.** Its value is 40.9646%.

**Q.** What about the “% inhibition Apol 90'” value (DRC-1, concentration 2.5) of the same molecule?
**A.** The value was -5.483%.

**Q.** What about the “% inhibition Apol 90'” value (DRC-1, concentration 5) of the same molecule?
**A.** Its value is -0.705%.

**Q.** What about the “% inhibition Apol 90'” value (DRC-1, concentration 10) of the same molecule?
**A.** Its value is 31.8192%.

**Q.** What about the “% inhibition Apol 90'” value (DRC-1, concentration 20) of the same molecule?
**A.** Its value is 46.4998%.

**Q.** And the “% inhibition Apol 90'” value (DRC-1, concentration 40)?
**A.** The value was 57.8018%.

**Q.** And the “% inhibition Apol 90'” value (DRC-1, concentration 80)?
**A.** The value was 63.3107%.

**Q.** And the “% inhibition apPOL 180'” value (DRC-1, concentration 2.5)?
**A.** The value was -3.278%.

**Q.** And the “% inhibition apPOL 180'” value (DRC-1, concentration 5)?
**A.** The value was 12.5243%.

**Q.** And the “% inhibition apPOL 180'” value (DRC-1, concentration 10)?
**A.** The value was 43.7705%.

**Q.** And the “% inhibition apPOL 180'” value (DRC-1, concentration 20)?
**A.** The value was 57.9843%.

**Q.** And the “% inhibition apPOL 180'” value (DRC-1, concentration 40)?
**A.** Its value is 66.1218%.

**Q.** What about the “% inhibition apPOL 180'” value (DRC-1, concentration 80) of the same molecule?
**A.** Its value is 68.6937%.

**Q.** And the “% inhibition Apo pol 5'” value (DRC-2, concentration 2.5)?
**A.** Its value is -5.63%.

**Q.** And the “% inhibition Apo pol 5'” value (DRC-2, concentration 5)?
**A.** The value was 3.49%.

**Q.** And the “% inhibition Apo pol 5'” value (DRC-2, concentration 10)?
**A.** Its value is 23%.

**Q.** And the “% inhibition Apo pol 5'” value (DRC-2, concentration 20)?
**A.** The value was 36%.

**Q.** And the “% inhibition Apo pol 5'” value (DRC-2, concentration 40)?
**A.** The value was 47%.

**Q.** What about the “% inhibition Apo pol 5'” value (DRC-2, concentration 80) of the same molecule?
**A.** The value was 54%.

**Q.** And the “% inhibition Apol 40'” value (DRC-2, concentration 2.5)?
**A.** Its value is -1.63%.

**Q.** What about the “% inhibition Apol 40'” value (DRC-2, concentration 5) of the same molecule?
**A.** Its value is 15%.

**Q.** And the “% inhibition Apol 40'” value (DRC-2, concentration 10)?
**A.** The value was 38%.

**Q.** What about the “% inhibition Apol 40'” value (DRC-2, concentration 20) of the same molecule?
**A.** Its value is 53%.

**Q.** What about the “% inhibition Apol 40'” value (DRC-2, concentration 40) of the same molecule?
**A.** The value was 62%.

**Q.** And the “% inhibition Apol 40'” value (DRC-2, concentration 80)?
**A.** Its value is 65%.

**Q.** And the “% inhibition ApPOL 90'” value (DRC-2, concentration 2.5)?
**A.** The value was 1.48%.

**Q.** And the “% inhibition ApPOL 90'” value (DRC-2, concentration 5)?
**A.** Its value is 22%.

**Q.** What about the “% inhibition ApPOL 90'” value (DRC-2, concentration 10) of the same molecule?
**A.** Its value is 45%.

**Q.** And the “% inhibition ApPOL 90'” value (DRC-2, concentration 20)?
**A.** Its value is 60%.

**Q.** What about the “% inhibition ApPOL 90'” value (DRC-2, concentration 40) of the same molecule?
**A.** The value was 67%.

**Q.** What about the “% inhibition ApPOL 90'” value (DRC-2, concentration 80) of the same molecule?
**A.** The value was 68%.

**Q.** What about the “% inhibition apPOL 180'” value (DRC-2, concentration 2.5) of the same molecule?
**A.** The value was 11%.

**Q.** What about the “% inhibition apPOL 180'” value (DRC-2, concentration 5) of the same molecule?
**A.** Its value is 32%.

**Q.** And the “% inhibition apPOL 180'” value (DRC-2, concentration 10)?
**A.** The value was 53%.

**Q.** And the “% inhibition apPOL 180'” value (DRC-2, concentration 20)?
**A.** Its value is 67%.

**Q.** And the “% inhibition apPOL 180'” value (DRC-2, concentration 40)?
**A.** The value was 71%.

**Q.** And the “% inhibition apPOL 180'” value (DRC-2, concentration 80)?
**A.** The value was 72%.
